Values joined by “and” are separate entries in the source; they are usually repeats but may differ in a detail not shown here. Equal entries are not always repeated.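 Compound exposure: 48 hours, 5 concentrations, 96-well plates. Here, GI50 denotes the concentration required for 50% inhibition of growth. Definition used: TGI = concentration required for complete inhibition of growth.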

Test systems include CCRF-CEM leukemia; HS 578T breast; SK-MEL-2 melanoma; HCT-116 colon; UO-31 renal; IGROV1 ovarian; SN12C renal; SK-MEL-5 melanoma; M14 melanoma; HCC-2998 colon.
What all share (experiment): NCI tumour cell line growth inhibition, 48 h

Turning to `CN(Cc1ccc(Cl)cc1)c1ccc(CO)c(Cl)c1`, the GI50 in the test with CCRF-CEM leukemia is 15.1 µM; with HS 578T breast, 12.5 µM; with SK-MEL-2 melanoma, 4.06 µM; in the test on HCT-116 colon it was 0.445 µM; in the test with UO-31 renal, 3.23 µM; in the test on IGROV1 ovarian it was 0.365 µM. The GI50 in the test with SN12C renal was 8.55 µM; in the test on SK-MEL-5 melanoma it was 5.42 µM; in the test with M14 melanoma, 8.33 µM; in the test with HCC-2998 colon, 9.36 µM. Further, the TGI was above 66.3 µM in the test on CCRF-CEM leukemia; 39.8 µM in the test on HS 578T breast; 16.3 µM in the test on SK-MEL-2 melanoma; 8.75 µM in the test with HCT-116 colon; 14.5 µM in the test with UO-31 renal; 2.24 µM in the test with IGROV1 ovarian. For the same molecule, the TGI came to 22.6 µM with SN12C renal, 17.3 µM with SK-MEL-5 melanoma, 22.3 µM with M14 melanoma and 22.1 µM in the test on HCC-2998 colon.

Take `COc1cc(C(=O)N2N=C(c3ccc(S(C)(=O)=O)cc3)CC2c2ccco2)cc(OC)c1OC` (stereo not given): the GI50 in the test on CCRF-CEM leukemia was 2.5 µM; with HS 578T breast it was 5.42 µM; in the test on SK-MEL-2 melanoma it was 8.68 µM; in the test on HCT-116 colon, 3.77 µM; in the test on UO-31 renal, 7.23 µM; in the test on IGROV1 ovarian, 5.4 µM. For the same molecule, the GI50 with SN12C renal is 12.3 µM; in the test with SK-MEL-5 melanoma, 2.99 µM; with M14 melanoma it was 5.81 µM; in the test with HCC-2998 colon it was 21 µM. In addition, the TGI is above 25.4 µM in the test with CCRF-CEM leukemia; above 100 µM with HS 578T breast; above 100 µM with SK-MEL-2 melanoma; above 100 µM in the test on HCT-116 colon; above 100 µM in the test on UO-31 renal; above 100 µM in the test with IGROV1 ovarian. For the same molecule, the TGI was above 100 µM in the test on SN12C renal, above 63.2 µM in the test with SK-MEL-5 melanoma, above 87.6 µM in the test with M14 melanoma and above 100 µM with HCC-2998 colon.

As for `CCOC(=O)/C(=N\OC)C(O)C(F)(F)F` (stereo not given), the TGI in the test on CCRF-CEM leukemia, in the test with HS 578T breast, in the test on SK-MEL-2 melanoma, with HCT-116 colon, in the test on UO-31 renal and in the test on IGROV1 ovarian was above 100 µM in each case. Besides, the TGI in the test on SN12C renal, with SK-MEL-5 melanoma, with M14 melanoma and with HCC-2998 colon was above 100 µM in each case.

As to `COc1cc(-n2cc(-c3ccc(F)cc3)nc2SCc2ccccc2)cc(OC)c1OC`, the GI50 with CCRF-CEM leukemia is 17.7 µM; in the test with HS 578T breast, above 100 µM; in the test with SK-MEL-2 melanoma, above 100 µM; in the test with HCT-116 colon, 18.8 µM; in the test with UO-31 renal, 9.66 µM; in the test on IGROV1 ovarian it was above 100 µM. Further, the GI50 in the test with SN12C renal was above 100 µM; with SK-MEL-5 melanoma, 54.8 µM; in the test on M14 melanoma, above 100 µM; in the test on HCC-2998 colon, above 100 µM. For the same molecule, the TGI with CCRF-CEM leukemia is 43.8 µM; with HS 578T breast, above 100 µM; in the test with SK-MEL-2 melanoma, above 100 µM; in the test with HCT-116 colon, above 100 µM; in the test with UO-31 renal, above 100 µM; with IGROV1 ovarian, above 100 µM. For the same molecule, the TGI with SN12C renal, with SK-MEL-5 melanoma, with M14 melanoma and with HCC-2998 colon was above 100 µM in each case.

For `COC(=O)C1=C(C)NC(C)=C(C(=O)OC)C1/C=C(\Cl)c1ccc(Cl)c(Cl)c1`, the GI50 in the test on CCRF-CEM leukemia was 5.55 µM; in the test with HS 578T breast it was 12.2 µM; in the test with HCT-116 colon, 12.2 µM; with UO-31 renal, 13.9 µM; in the test with IGROV1 ovarian, 15.5 µM; with SN12C renal, 14 µM. Moreover, the GI50 in the test with SK-MEL-5 melanoma is 15.2 µM; in the test with M14 melanoma, 16.6 µM; in the test with HCC-2998 colon, 17.3 µM. Further, the TGI was determined as 31.6 µM in the test on CCRF-CEM leukemia; 33.4 µM in the test with HS 578T breast; 24.6 µM in the test with HCT-116 colon; 27.1 µM in the test on UO-31 renal; 28.9 µM in the test on IGROV1 ovarian; 27.5 µM in the test with SN12C renal. Also, the values for the TGI in the test on SK-MEL-5 melanoma, with M14 melanoma and in the test on HCC-2998 colon were 28.5 µM, 30.2 µM and 31.1 µM, respectively.

`S=C(N/N=C(/c1ccccc1)c1ccccn1)N1CCCCC1`: the GI50 was below 0.001 µM in the test with CCRF-CEM leukemia; 1.3 µM in the test with HS 578T breast; below 0.001 µM in the test on SK-MEL-2 melanoma; below 0.001 µM with HCT-116 colon; 0.468 µM in the test on UO-31 renal; below 0.001 µM in the test on IGROV1 ovarian. Also, the GI50 in the test on SN12C renal is 0.171 µM. For the same molecule, the TGI is 0.0332 µM in the test on CCRF-CEM leukemia; 6.74 µM and 5.88 µM in the test with HS 578T breast; 2.01 µM and 2.36 µM in the test with SK-MEL-2 melanoma; 1.6 µM and 1.56 µM in the test with HCT-116 colon; 2.01 µM and 1.54 µM with UO-31 renal; 1.65 µM and 2.56 µM in the test on IGROV1 ovarian. The TGI with SN12C renal is 2.18 µM and 2.68 µM; in the test with SK-MEL-5 melanoma it was 1.38 µM and 1.56 µM; in the test on M14 melanoma it was 1.66 µM and 0.543 µM; in the test with HCC-2998 colon, 2.1 µM.

Take `CC(=O)CCc1ccc(OC2OC(COC(=O)c3cc(O)c(O)c(O)c3)C(O)C(O)C2OC(=O)/C=C/c2ccccc2)cc1` (stereo not given): the GI50 in the test on CCRF-CEM leukemia was 20.7 µM; in the test on HS 578T breast, 33.8 µM; in the test with SK-MEL-2 melanoma it was 20.2 µM; with HCT-116 colon, 15.1 µM; in the test on UO-31 renal it was 30.2 µM; in the test with IGROV1 ovarian it was 19 µM. Further, the GI50 is 20.4 µM with SN12C renal, 19.1 µM in the test with SK-MEL-5 melanoma, 18.6 µM in the test on M14 melanoma and 15.3 µM in the test on HCC-2998 colon. The TGI with CCRF-CEM leukemia is 52.2 µM; in the test with HS 578T breast it was above 100 µM; in the test on SK-MEL-2 melanoma, 43 µM; in the test with HCT-116 colon, 29.9 µM; with UO-31 renal, above 100 µM; in the test on IGROV1 ovarian, 38.6 µM. For the same molecule, the TGI with SN12C renal was 44.4 µM; in the test on SK-MEL-5 melanoma, 36.1 µM; in the test with M14 melanoma, 37.4 µM; in the test on HCC-2998 colon, 30.2 µM.

On to `Cc1cc2cc3cc(C)c(N(C)C)cc3[n+](C)c2cc1N(C)C`, for which the GI50 in the test on CCRF-CEM leukemia is 12.2 µM; with HS 578T breast, 2.35 µM; in the test with SK-MEL-2 melanoma it was 4.57 µM; in the test on HCT-116 colon it was 2.55 µM; in the test on UO-31 renal, 5.05 µM; with IGROV1 ovarian it was 5.04 µM. Besides, the GI50 with SN12C renal is 3.91 µM; in the test with SK-MEL-5 melanoma it was 2.1 µM; with M14 melanoma, 4.68 µM; in the test with HCC-2998 colon, 3.45 µM. Besides, the TGI in the test on CCRF-CEM leukemia was above 100 µM; in the test with HS 578T breast, 14.9 µM; in the test with SK-MEL-2 melanoma it was above 100 µM; in the test with HCT-116 colon it was 20.7 µM; in the test on UO-31 renal, 70.7 µM; in the test with IGROV1 ovarian it was above 100 µM. Besides, the TGI was above 100 µM in the test with SN12C renal, 6.96 µM with SK-MEL-5 melanoma, 19.8 µM in the test on M14 melanoma and 16.7 µM in the test on HCC-2998 colon.

These data come from PubChem BioAssay (NCI).
